# Test results from US5990118A, “Purine compounds and xanthine oxidase inhibitors” (Yamasa Corporation, priority 1995, dated 1999).
# Target: T1, bovine-milk-derived xanthine oxidase (XOD) (Bos taurus, UniProt P80457)
# T1 construct: from tissue; host or cells: bovine milk
# Assay: Xanthine oxidase inhibitory activity (inhibition of uricogenesis from xanthine, absorbance at 292 nm)
# Format: biochemical
# Conditions: xanthine 100 μM, XOD 10 mU/ml, 50 mM phosphate buffer pH 7.4, 15 minutes, room temperature
# Description: Test Example: Xanthine oxidase inhibitory activity
# Xanthine (100 μM), bovine-milk-derived xanthine oxidase (XOD) (10 mU/ml), and a test compound were mixed in 50 mM phosphate buffer (pH 7.4), and the mixture was incubated for 15 minutes at room temperature. Transformation of xanthine into uric acid was measured as the change in absorbance (O.D.) at 292 nm, to thereby investigate the inhibitory effect of the test compound against uricogenesis.
# The inhibition ratio against uricogenesis was calculated from the following equation, and a dose-response curve of each compound was obtained.
# Inhibition ratio against uricogenesis (%)=100-[(D-DB)/T]×100
# T: O.D. of a solution of "xanthine+XOD"
# D: O.D. of a solution of "test compound+xanthine+XOD"
# DB: O.D. of a solution of "test compound+XOD"
# T1 sequence (P80457 whole entry): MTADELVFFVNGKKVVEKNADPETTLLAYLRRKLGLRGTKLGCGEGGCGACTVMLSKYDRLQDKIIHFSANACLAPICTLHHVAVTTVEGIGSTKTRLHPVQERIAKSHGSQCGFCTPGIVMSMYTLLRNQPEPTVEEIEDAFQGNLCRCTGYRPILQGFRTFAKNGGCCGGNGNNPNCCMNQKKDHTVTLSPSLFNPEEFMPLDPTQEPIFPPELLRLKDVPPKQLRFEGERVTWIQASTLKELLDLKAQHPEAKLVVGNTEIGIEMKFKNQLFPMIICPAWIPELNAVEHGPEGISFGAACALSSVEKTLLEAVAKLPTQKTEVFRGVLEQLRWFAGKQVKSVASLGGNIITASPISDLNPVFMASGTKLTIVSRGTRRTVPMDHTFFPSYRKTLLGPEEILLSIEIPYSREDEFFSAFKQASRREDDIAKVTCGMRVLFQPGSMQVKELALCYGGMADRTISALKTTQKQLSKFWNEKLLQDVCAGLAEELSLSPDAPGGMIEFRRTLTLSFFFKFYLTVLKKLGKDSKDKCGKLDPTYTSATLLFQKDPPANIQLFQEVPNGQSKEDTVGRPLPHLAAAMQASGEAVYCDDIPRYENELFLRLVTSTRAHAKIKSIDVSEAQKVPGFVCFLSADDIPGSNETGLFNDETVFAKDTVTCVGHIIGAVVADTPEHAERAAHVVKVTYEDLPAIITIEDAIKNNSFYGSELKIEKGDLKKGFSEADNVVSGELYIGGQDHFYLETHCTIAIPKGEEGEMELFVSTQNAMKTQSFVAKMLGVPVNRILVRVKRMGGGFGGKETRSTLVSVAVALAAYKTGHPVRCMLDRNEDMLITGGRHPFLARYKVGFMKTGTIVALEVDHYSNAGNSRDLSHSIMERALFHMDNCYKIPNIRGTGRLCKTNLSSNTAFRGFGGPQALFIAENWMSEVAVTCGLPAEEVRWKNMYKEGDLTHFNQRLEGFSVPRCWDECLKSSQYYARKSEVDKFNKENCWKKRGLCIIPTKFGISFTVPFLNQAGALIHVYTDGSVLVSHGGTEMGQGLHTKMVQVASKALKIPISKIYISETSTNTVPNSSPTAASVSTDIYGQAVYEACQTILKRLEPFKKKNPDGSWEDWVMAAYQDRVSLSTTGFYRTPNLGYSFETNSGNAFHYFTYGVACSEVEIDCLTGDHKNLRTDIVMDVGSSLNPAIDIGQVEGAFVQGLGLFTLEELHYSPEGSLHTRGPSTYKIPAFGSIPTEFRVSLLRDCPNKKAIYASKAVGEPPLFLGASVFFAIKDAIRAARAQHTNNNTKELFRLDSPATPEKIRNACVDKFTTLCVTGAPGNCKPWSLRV
smiles,measurement,value
"S=c1[nH]c2[nH]cnc2c2nnc(-c3ccccc3)n12 [Compound 5c, 3-phenyl-7H-[1,2,4]triazolo[3,4-i]purine-5(6H)-thione]",IC50,2950 nM
"Fc1ccc(C=NNc2nc(=S)[nH]c3[nH]cnc23)cc1 [Compound 17a, 6-p-fluorobenzylidenehydrazino-9H-purine-2(3H)-thione]",IC50,336 nM
"O=[N+]([O-])c1ccc(C=NNc2nc(=S)[nH]c3[nH]cnc23)cc1 [Compound 17c, 6-p-nitrobenzylidenehydrazino-9H-purine-2(3H)-thione]",IC50,1180 nM
"Oc1ccc(C=NNc2nc(Cl)nc3[nH]cnc23)cc1 [Compound 3i, 2-chloro-6-p-hydroxybenzylidenehydrazino-9H-purine]",IC50,764 nM
"Clc1ccc(C=NNc2nc(Cl)nc3[nH]cnc23)cc1 [Compound 3d, 2-chloro-6-p-chlorobenzylidenehydrazino-9H-purine]",IC50,927 nM
"COc1ccc(C=NN(C)c2nc(=S)[nH]c3[nH]cnc23)cc1 [Compound 19a, 6-[2-(4-methoxybenzylidene)-1-methylhydrazino]-9H-purine-2(3H)-thione]",IC50,681 nM
"Cc1nnc2c3nc[nH]c3[nH]c(=S)n12 [Compound 5b, 3-methyl-7H-[1,2,4]triazolo[3,4-i]purine-5(6H)-thione]",IC50,7910 nM
"Clc1nc(NN=Cc2ccc3c(c2)OCO3)c2nc[nH]c2n1 [Compound 3g, 2-chloro-6-(3,4-methylenedioxybenzylidenehydrazino)-9H-purine]",IC50,1150 nM
"COc1ccc(C=NNc2nc(=S)[nH]c3[nH]cnc23)cc1 [Compound 17d, 6-p-methoxybenzylidenehydrazino-9H-purine-2(3H)-thione]",IC50,969 nM
"O=c1[nH]c2[nH]cnc2c2nnc(-c3ccccc3)n12 [Compound 11c, 3-phenyl-7H-[1,2,4]triazolo[3,4-i]purine-5(6H)-one]",IC50,2570 nM
"CN(C)c1ccc(C=NNc2nc(Cl)nc3[nH]cnc23)cc1 [Compound 3f, 2-chloro-6-p-N,N-dimethylaminobenzylidenehydrazino-9H-purine]",IC50,2320 nM
"S=c1nc(NN=Cc2ccc3c(c2)OCO3)c2nc[nH]c2[nH]1 [Compound 17e, 6-(3,4-methylenedioxybenzylidenehydrazino)-9H-purine-2(3H)-thione]",IC50,235 nM
"COc1ccc(-c2nnc3c4nc[nH]c4[nH]c(=S)n23)cc1 [Compound 5d, 3-p-methoxyphenyl-7H-[1,2,4]triazolo[3,4-i]purine-5(6H)-thione]",IC50,3020 nM
"COc1ccc(C=NNc2nc(Cl)nc3[nH]cnc23)cc1 [Compound 3e, 2-chloro-6-p-methoxybenzylidenehydrazino-9H-purine]",IC50,801 nM
"Clc1nc(NN=Cc2ccccc2)c2nc[nH]c2n1 [Compound 3b, 6-benzylidenehydrazino-2-chloro-9H-purine]",IC50,2710 nM
"CN(C)c1ccc(C=NNc2nc(=S)[nH]c3[nH]cnc23)cc1 [Compound 17b, 6-p-N,N-dimethylaminobenzylidenehydrazino-9H-purine-2(3H)-thione]",IC50,865 nM
"CN(N=Cc1ccc(F)cc1)c1nc(=S)[nH]c2[nH]cnc12 [Compound 19b, 6-[2-(4-fluorobenzylidene)-1-methylhydrazino]-9H-purine-2(3H)-thione]",IC50,667 nM
"O=c1[nH]c2[nH]cnc2c2nnc(-c3ccc(Cl)cc3)n12 [Compound 11e, 3-p-chlorophenyl-7H-[1,2,4]triazolo[3,4-i]purine-5(6H)-one]",IC50,156 nM
"Fc1ccc(C=NNc2nc(Cl)nc3[nH]cnc23)cc1 [Compound 3c, 2-chloro-6-p-fluorobenzylidenehydrazino-9H-purine]",IC50,1960 nM
